Laboratory results from patent US20050079604A1, “Method for improving functionality of tissue constructs” (priority 2001, published 2005).

Assays:
[1] = system: reconstructed human vascular media (RHVM); test: Contraction of RHVM rings in response to cumulative doses of histamine (myograph, isometric tension); type: cell-based; settings: 21 days of maturation, FIG. 9
Experimental: (§1) Reconstructed human vascular media (RHVM) were prepared for the control tissue construct (not aligned) as described in Example I. The RHVM used for this example were treated as follow: RHVM cultured in medium described above represent the control condition (non-treated RHVM) and RHVM supplemented with cell proliferation inhibitors, heparin or olomoucine (treated RHVM).
To assess the contractile function of RHVM which were treated or not (control condition), RHVM rings of 5-7 mm in length were removed from the tubular support used for culture after 21 days of maturation. Rings were mounted in a myograph and challenged in the presence of cumulative doses of histamine, a vasoactive agent. Isometric tension generated by RHVM contraction was directly recorded via a force transducer (Kilster-Morse, DSG BE4).

[2] = system: smooth muscle cells present in reconstructed human vascular media; test: Immunolabeled differentiation markers of smooth muscle cells in RHVM; type: cell-based; settings: FIG. 10
Experimental: as §1

Substance: heparin
- contraction of RHVM cultured with the cell proliferation inhibitor vs control RHVM ([1]; higher doses of histamine, 10^−5 and 10^−4 M): significantly greater contraction
- contraction of RHVM cultured with the cell proliferation inhibitor vs non-treated RHVM ([1]; low dose of histamine (10^−6 M)): no significant difference of contraction
- expression of differentiation markers in cells cultured with the inhibitor vs without [2]: increased
